Experimental data from patent publication EP1432683B9 (Recordati Ireland Limited, priority 2001, dated 2003).
Structures can show the parent of a compound that is named as a salt.

What was measured:
[1] = Solubility of crude forms compared with other crude forms; type: physicochemical
[2] = oral administration; cited from earlier work

Row | Structure (SMILES) | solubility compared to other crude forms previously reported [1] | peak plasma levels occurring (time following dosing) [2] [h]
1 | COC(=O)C1=C(C)NC(C)=C(C(=O)OC(C)(C)CN(C)CCC(c2ccccc2)c2ccccc2)C1c1cccc([N+](=O)[O-])c1 (centres unmarked) [Form (A), lercanidipine hydrochloride] | higher solubility | –
2 | COC(=O)C1=C(C)NC(C)=C(C(=O)OC(C)(C)CN(C)CCC(c2ccccc2)c2ccccc2)C1c1cccc([N+](=O)[O-])c1 (centres unmarked) [Lercanidipine, methyl 1,1,N-trimethyl-N-(3,3-diphenylpropyl)-2-aminoethyl 1,4-dihyaro-2,6-dimethyl-4-(3-nitrophenyl)pyridine-3,5-dicarboxylate] | – | 2 to 3
